Results reported in patent US11051515B2, “3-acyl-benzamides and their use as herbicides” (Bayer Aktiengesellschaft, priority 2017, dated 2021).

Legend:
VIOTR = assay: Post-emergence action against VIOTR; type: in vivo, Viola tricolor; settings: for pest or weed control at 80 g/ha: Viola tricolor, 504 h, post-emergence, dosage 80 g/ha
Method in brief: (§1)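 Weeds grown in sandy loam in greenhouse, treated at one-leaf stage (2–3 weeks after sowing) with WP or EC formulations sprayed as aqueous suspension/emulsion at 600 to […] water with 0.2% wetting agent. Visual rating after about 3 weeks versus untreated controls, as % herbicidal action (100% = plants dead, 0% = like control).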

ABUTH = assay: Pre-emergence action against ABUTH; type: in vivo, Abutilon theophrasti; settings: for pest or weed control at 320 g/ha: Abutilon theophrasti, 504 h, pre-emergence, dosage 320 g/ha, scored visually after 3 weeks vs untreated controls, read-out: Pre-emergence action against ABUTH (herbicidal activity)
Method in brief: (§2)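 Seeds sown in sandy loam in wood-fiber pots and covered with soil. Greenhouse growth; visual damage scored after 3 weeks versus untreated controls (100% = dead, 0% = like control).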

MATIN [1] = assay: Pre-emergence action against MATIN; type: in vivo, Matricaria inodora; settings: for pest or weed control at 320 g/ha: Tripleurospermum inodorum, 504 h, Dosage 320 g/ha, pre-emergence
Method in brief: as §2

LOLMU [2] = assay: Pre-emergence action against LOLMU; type: in vivo, Lolium multiflorum; settings: Lolium multiflorum, 504 h, dosage 320 g/ha, scored visually after 3 weeks vs untreated controls, read-out: Pre-emergence action against LOLMU (herbicidal activity)
Method in brief: as §2

MATIN [3] = assay: Post-emergence action against MATIN; type: in vivo, Matricaria inodora; settings: for pest or weed control at 80 g/ha: Tripleurospermum inodorum, 504 h, post-emergence, dosage 80 g/ha, visual assessment about 3 weeks after treatment vs untreated controls, read-out: Post-emergence action against MATIN (herbicidal action in percent)
Method in brief: as §1

PHBPU = assay: Post-emergence action against PHBPU; type: in vivo, Pharbitis purpurea; settings: for pest or weed control at 80 g/ha: Ipomoea purpurea, 504 h, post-emergence, dosage 80 g/ha
Method in brief: as §1

CYPES = assay: Post-emergence action against CYPES; type: in vivo, Cyperus esculentus; settings: for pest or weed control at 80 g/ha: Cyperus esculentus, 504 h, post-emergence, dosage 80 g/ha, visual assessment about 3 weeks after treatment vs untreated controls, read-out: Post-emergence action against CYPES (herbicidal action in percent)
Method in brief: as §1

ECHCG = assay: Post-emergence action against ECHCG; type: in vivo, Echinochloa crus-galli; settings: Echinochloa crus-galli, 504 h; post-emergence, dosage 80 g/ha, visual assessment about 3 weeks after treatment vs untreated controls; read-out: Post-emergence action against ECHCG (herbicidal action in percent)
Method in brief: as §1

LOLMU [4] = assay: Post-emergence action against LOLMU; type: in vivo, Lolium multiflorum; settings: Lolium multiflorum, 504 h, dosage 80 g/ha, visual assessment about 3 weeks after treatment vs untreated controls, read-out: Post-emergence action against LOLMU (herbicidal action in percent)
Method in brief: as §1

LOLRI [5] = assay: Pre-emergence action against LOLRI; type: in vivo, Lolium rigidum; settings: Lolium rigidum, 504 h, dosage 320 g/ha, scored visually after 3 weeks vs untreated controls, read-out: Pre-emergence action against LOLRI (herbicidal activity)
Method in brief: as §2

DIGSA [6] = assay: Pre-emergence action against DIGSA; type: in vivo, Digitaria sanguinalis; settings: dosage 320 g/ha, scored visually after 3 weeks vs untreated controls
Method in brief: as §2

HORMU = assay: Pre-emergence action against HORMU; type: in vivo, Hordeum murinum; settings: Hordeum murinum, 504 h, Dosage 320 g/ha
Method in brief: as §2

DIGSA [7] = assay: Post-emergence action against DIGSA; type: in vivo, Digitaria sanguinalis; settings: dosage 80 g/ha, visual assessment about 3 weeks after treatment vs untreated controls
Method in brief: as §1

LOLRI [8] = assay: Post-emergence action against LOLRI; type: in vivo, Lolium rigidum; settings: Lolium rigidum, 504 h, dosage 80 g/ha, visual assessment about 3 weeks after treatment vs untreated controls, read-out: Post-emergence action against LOLRI (herbicidal action in percent)
Method in brief: as §1

[9] = Table V17, post-emergence, 5 g of a.i./ha
[10] = Table V7, pre-emergence, 20 g of a.i./ha
[11] = Table V18, post-emergence, 20 g of a.i./ha

| Structure (SMILES) | pest or weed control at 80 g/ha (VIOTR) [%] | pest or weed control at 320 g/ha (ABUTH) [%] | pest or weed control at 320 g/ha (MATIN [1]) [%] | pest or weed control at 320 g/ha (LOLMU [2]) [%] | pest or weed control at 80 g/ha (MATIN [3]) [%] | pest or weed control at 80 g/ha (PHBPU) [%] | pest or weed control at 80 g/ha (CYPES) [%] | pest or weed control at 80 g/ha (ECHCG) [%] | pest or weed control at 80 g/ha (LOLMU [4]) [%] | pest or weed control at 320 g/ha (LOLRI [5]) [%] | Pre-emergence action against DIGSA (herbicidal activity) (DIGSA [6]) [%] | pest or weed control at 320 g/ha (HORMU) [%] | Post-emergence action against DIGSA (herbicidal action in percent) (DIGSA [7]) [%] | pest or weed control at 80 g/ha (LOLRI [8]) [%] | other results |
| --- | --- | --- | --- | --- | --- | --- | --- | --- | --- | --- | --- | --- | --- | --- | --- |
| CSc1c(C(=O)Nc2nnnn2C)ccc(C(F)(F)F)c1C(C)=O [1-58] | 100 | 100 | 100 | 90 | 100 | 100 | 90 | 100 | 80 |  |  |  |  |  |  |
| Cc1c(C(=O)Nc2nnnn2C)ccc(S(C)(=O)=O)c1C(=O)C1CC1 [1-9] | 100 | 100 | 100 |  | 100 | 100 | 80 | 90 | 90 |  |  |  |  |  | Herbicidal efficacy against VIOTR (VIOTR; [9]): 100; Herbicidal efficacy against ABUTH (ABUTH; [10]): 100; Herbicidal efficacy against MATIN (MATIN [1]; [10]): 90; Herbicidal efficacy against MATIN (MATIN [3]; [9]): 100; Herbicidal efficacy against MATIN (MATIN [3]; [11]): 100; Herbicidal efficacy against PHBPU (PHBPU; [11]): 100; Herbicidal efficacy against CYPES (CYPES; [11]): 70 |
| CCC(=O)c1c(C(F)F)ccc(C(=O)Nc2nnnn2C)c1Cl [1-165] | 90 | 100 | 100 |  | 90 | 90 |  | 90 |  | 100 | 100 | 90 | 100 | 80 |  |
| CCCC(=O)c1c(C(F)(F)F)ccc(C(=O)Nc2nnnn2C)c1C [1-16] | 100 | 100 | 100 |  | 100 | 100 |  | 90 |  | 100 | 100 | 90 | 90 | 80 |  |
| CC(=O)c1c(C(F)F)ccc(C(=O)Nc2nnnn2C)c1Cl [1-164] | 100 | 100 | 100 |  | 100 | 90 | 90 | 100 |  | 100 |  | 90 |  | 90 |  |
| CC(=O)c1c(C(F)(F)F)ccc(C(=O)Nc2nnnn2C)c1Cl [1-137, 3-acetyl-2-chloro-N-(1-methyl-1H-tetrazol-5-yl)-4-(trifluoromethyl)benzamide] | 100 | 100 | 100 | 100 | 90 | 100 | 90 | 90 | 100 |  |  |  |  |  |  |
